PubChem BioAssay (NCI)
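Tested at 5 concentrations; 48 h exposure; 96-well plates; endpoints linearly interpolated, else capped at highest concentration. At the GI50, growth is halved. The concentration for full growth arrest is given as TGI.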

Columns and labels:
Assay in all cases: NCI-60 cell line screen, 48 h
[1] = system: 786-0 renal
[2] = system: A498 renal
[3] = system: A549 NSCLC
[4] = system: ACHN renal
[5] = system: BT-549 breast
[6] = system: CAKI-1 renal
[7] = system: CCRF-CEM leukemia
[8] = system: COLO 205 colon
[9] = system: DU-145 prostate
[10] = system: EKVX NSCLC
[11] = system: HCC-2998 colon
[12] = system: HCT-116 colon
[13] = system: HCT-15 colon
[14] = system: HL-60(TB) leukemia
[15] = system: HOP-62 NSCLC
[16] = system: HOP-92 NSCLC
[17] = system: HS 578T breast
[18] = system: HT29 colon
[19] = system: IGROV1 ovarian
[20] = system: K-562 leukemia
[21] = system: KM12 colon
[22] = system: LOX IMVI melanoma
[23] = system: M14 melanoma
[24] = system: MALME-3M melanoma
[25] = system: MCF7 breast
[26] = system: MDA-MB-231 breast
[27] = system: MDA-MB-435
[28] = system: MDA-MB-468 breast
[29] = system: MOLT-4 leukemia
[30] = system: NCI-H226 lung
[31] = system: NCI-H23 lung
[32] = system: NCI-H460 lung
[33] = system: NCI-H522 lung
[34] = system: NCI/ADR-RES ovarian
[35] = system: OVCAR-3 ovarian
[36] = system: OVCAR-4 ovarian
[37] = system: OVCAR-5 ovarian
[38] = system: OVCAR-8 ovarian
[39] = system: PC-3 prostate
[40] = system: RPMI-8226 leukemia
[41] = system: RXF 393 renal
[42] = system: SF-268 CNS
[43] = system: SF-295 CNS
[44] = system: SF-539 CNS
[45] = system: SK-MEL-2 melanoma
[46] = system: SK-MEL-28 melanoma
[47] = system: SK-MEL-5 melanoma
[48] = system: SK-OV-3 ovarian
[49] = system: SN12C renal
[50] = system: SNB-19 CNS
[51] = system: SNB-75 CNS
[52] = system: SR leukemia
[53] = system: SW-620 colon
[54] = system: T-47D breast
[55] = system: TK-10 renal
[56] = system: U251 CNS
[57] = system: UACC-257 melanoma
[58] = system: UACC-62 melanoma
[59] = system: UO-31 renal

N/C(=N\c1nc2ccccc2s1)NC(=O)Nc1ccc(Cl)cc1Cl
GI50 [1]: 456 nM
TGI [1]: 1760 nM
GI50 [2]: 1640 nM
TGI [2]: 3730 nM
GI50 [3]: 878 nM
TGI [3]: 2840 nM
GI50 [4]: 574 nM
TGI [4]: 2080 nM
GI50 [5]: 414 nM
TGI [5]: 5040 nM
GI50 [6]: 389 nM
TGI [6]: 2210 nM
GI50 [7]: 360 nM
TGI [7]: 3800 nM
GI50 [8]: 491 nM
TGI [8]: 1780 nM
GI50 [9]: 1000 nM
TGI [9]: 3060 nM
GI50 [10]: 489 nM
TGI [10]: 2660 nM
GI50 [11]: 978 nM
TGI [11]: 2860 nM
GI50 [12]: 384 nM
TGI [12]: 1510 nM
GI50 [13]: 379 nM
TGI [13]: 1980 nM
GI50 [14]: 295 nM
GI50 [15]: 397 nM
TGI [15]: 1810 nM
GI50 [16]: 923 nM
TGI [16]: 3910 nM
GI50 [17]: 289 nM
TGI [17]: 2430 nM
GI50 [18]: 341 nM
TGI [18]: 1150 nM
GI50 [19]: 558 nM
TGI [19]: 2350 nM
GI50 [20]: 370 nM
GI50 [21]: 439 nM
TGI [21]: 3600 nM
GI50 [22]: 567 nM
TGI [22]: 1960 nM
GI50 [23]: 390 nM
TGI [23]: 1840 nM
GI50 [24]: 454 nM
TGI [24]: 2130 nM
GI50 [25]: 309 nM
TGI [25]: 1780 nM
GI50 [26]: 571 nM
TGI [26]: 2180 nM
GI50 [27]: 160 nM
TGI [27]: 510 nM
GI50 [28]: 271 nM
TGI [28]: 788 nM
GI50 [29]: 536 nM
GI50 [30]: 948 nM
TGI [30]: 2680 nM
GI50 [31]: 835 nM
TGI [31]: 2440 nM
GI50 [32]: 419 nM
TGI [32]: 1510 nM
GI50 [33]: 194 nM
TGI [33]: 787 nM
GI50 [34]: 269 nM
TGI [34]: 937 nM
GI50 [35]: 359 nM
TGI [35]: 1340 nM
GI50 [36]: 1530 nM
TGI [36]: 5070 nM
GI50 [37]: 948 nM
TGI [37]: 3090 nM
GI50 [38]: 766 nM
TGI [38]: 4610 nM
GI50 [39]: 753 nM
TGI [39]: 3890 nM
GI50 [40]: 1120 nM
TGI [40]: 8960 nM
GI50 [41]: 357 nM
TGI [41]: 1690 nM
GI50 [42]: 1160 nM
TGI [42]: 23000 nM
GI50 [43]: 334 nM
TGI [43]: 1310 nM
GI50 [44]: 261 nM
TGI [44]: 842 nM
GI50 [45]: 351 nM
TGI [45]: 1170 nM
GI50 [46]: 1040 nM
TGI [46]: 5670 nM
GI50 [47]: 352 nM
TGI [47]: 1710 nM
GI50 [48]: 434 nM
TGI [48]: 2210 nM
GI50 [49]: 566 nM
TGI [49]: 2210 nM
GI50 [50]: 672 nM
TGI [50]: 5540 nM
GI50 [51]: 230 nM
TGI [51]: 997 nM
GI50 [52]: 952 nM
GI50 [53]: 455 nM
TGI [53]: 2460 nM
GI50 [54]: 421 nM
TGI [54]: 6420 nM
GI50 [55]: 1910 nM
TGI [55]: 4280 nM
GI50 [56]: 458 nM
TGI [56]: 1750 nM
GI50 [57]: 2070 nM
TGI [57]: 17700 nM
GI50 [58]: 374 nM
TGI [58]: 3200 nM
GI50 [59]: 503 nM
TGI [59]: 1960 nM
